Data: patent US20170129919A1, “CYCLIC DIPEPTIDE-CONTAINING COMPOSITION” (Suntory Holdings Limited, priority 2014, published 2017)
Values after ≈ are worked out from the molar mass of the structure shown. Like-named read-outs stand apart in the source and are kept apart here.

Tests used:
xanthine oxidase (XO) = test: In vitro xanthine oxidase (XO) inhibiting action; assay type: biochemical; details: for IC50: PBS pH 7.5, xanthine substrate, absorbance at 295 nm after 30 minutes, mean±standard error; for Inhibition Rate (%) at Concentration of 100 μM: Table 2, XO inhibition at 100 μM; for action of inhibiting a xanthine oxidase (in words): summary of Tables 1 to 3
Protocol: The in vitro xanthine oxidase (XO) inhibiting action was studied on 210 kinds of cyclic dipeptides, linear dipeptides Tyr-Gly and Gly-Tyr, and an amino acid Tyr. […] Thereafter, 20 μL of a 250 μM xanthine solution previously dissolved in the PBS was added thereto, and the absorbance after 30 minutes was measured using a spectrophotometer (Synegy HT, manufactured by Bio Tek). The XO inhibition rate (%) at each concentration was calculated by the following calculation formula, to obtain activities of inhibiting XO (IC50 values).

Solubility in water = assay type: physicochemical; details: Table 5; for Solubility in Water: distilled water, 25° C., ultrasonication 30 minutes, visual examination, tested at 5, 1, 0.1, 0.01 mM, insoluble = not dissolved at 0.01 mM
Protocol: Concretely, each compound was added to distilled water (manufactured by Otsuka Pharmaceutical Co., Ltd.) at an ambient temperature (25° C.) so as to have a final concentration of 5 mM, and the mixture was stirred under ultrasonication for 30 minutes to dissolve. […] However, none of the compounds dissolved, so that distilled water was further added thereto so as to have a final concentration of 0.01 mM, and the mixture was stirred under ultrasonication for 30 minutes, but still no compounds dissolved.

[1] = Table 3, read-out: IC50 (Activity of Inhibiting XO of Phe-Containing Cyclic Dipeptides)
[2] = Table 1, read-out: IC50 (Activity of Inhibiting XO of Tyr-Containing Cyclic Dipeptides)

Row | Compound | IC50 (xanthine oxidase (XO); [1]) | Solubility in Water (Solubility in water) | other results
1 | NC(=O)CC1NC(=O)C(Cc2ccccc2)NC1=O (stereo not shown) [Cyclo(Asn-Phe), reference compound] | > 300 µM | – | –
2 | CCC(C)C1NC(=O)C(Cc2ccc(O)cc2)NC1=O (stereo not shown) [Cyclo(Ile-Tyr), cycloisoleucyltyrosine] | – | 1000 µM (≈ 276 µg/mL) | solubility in water (in words) (Solubility in water): high solubility in water; IC50 (xanthine oxidase (XO); [2]): 86.7 ± 2.8 µM
3 | O=C1N[C@@H](Cc2c[nH]cn2)C(=O)N[C@H]1Cc1ccc(O)cc1 [Cyclo(His-Tyr), cyclohistidyltyrosine] | – | 1000 µM (≈ 300 µg/mL) | solubility in water (in words) (Solubility in water): high solubility in water; Inhibition Rate (%) at Concentration of 100 μM (xanthine oxidase (XO)): 3.2%
4 | cyclotryptophanyltyrosine [Cyclo(Trp-Tyr)] | – | insoluble | Inhibition Rate (%) at Concentration of 100 μM (xanthine oxidase (XO)): 19.1%
5 | NCCCCC1NC(=O)C(Cc2ccccc2)NC1=O (stereo not shown) [Cyclo(Lys-Phe), reference compound] | > 300 µM | – | –
6 | O=C(O)CC1NC(=O)C(Cc2ccccc2)NC1=O (stereo not shown) [Cyclo(Asp-Phe), reference compound] | > 300 µM | – | –
7 | N=C(N)NCCCC1NC(=O)C(Cc2ccc(O)cc2)NC1=O (stereo not shown) [Cyclo(Arg-Tyr), cycloarginyltyrosine] | – | 5000 µM (≈ 1600 µg/mL) | solubility in water (in words) (Solubility in water): high solubility in water; IC50 (xanthine oxidase (XO); [2]): 211 µM
8 | O=C(O)C[C@@H]1NC(=O)[C@H](Cc2ccc(O)cc2)NC1=O [Cyclo(Asp-Tyr), cycloaspartyltyrosine] | – | 5000 µM (≈ 1390 µg/mL) | solubility in water (in words) (Solubility in water): high solubility in water; IC50 (xanthine oxidase (XO); [2]): 172 µM
9 | NC(=O)CC[C@@H]1NC(=O)[C@H](Cc2ccc(O)cc2)NC1=O [Cyclo(Gln-Tyr), cycloglutaminyltyrosine] | – | 1000 µM (≈ 291 µg/mL) | solubility in water (in words) (Solubility in water): high solubility in water; Inhibition Rate (%) at Concentration of 100 μM (xanthine oxidase (XO)): 42.6%
10 | O=C1NC(Cc2ccccc2)C(=O)N2CCCC12 (stereo not shown) [Cyclo(Pro-Phe), reference compound] | > 100 µM | – | –
11 | O=C1CNC(=O)C(Cc2ccccc2)N1 (stereo not shown) [Cyclo(Phe-Gly), reference compound] | > 100 µM | – | –
12 | NC(=O)C[C@@H]1NC(=O)[C@H](Cc2ccc(O)cc2)NC1=O [Cyclo(Asn-Tyr), cycloasparaginyltyrosine] | – | 1000 µM (≈ 277 µg/mL) | solubility in water (in words) (Solubility in water): high solubility in water; IC50 (xanthine oxidase (XO); [2]): 113 µM
13 | CCC(C)C1NC(=O)C(Cc2ccccc2)NC1=O (stereo not shown) [Cyclo(Ile-Phe), reference compound] | > 100 µM | – | –
14 | CC(C)C1NC(=O)C(Cc2ccc(O)cc2)NC1=O (stereo not shown) [Cyclo(Val-Tyr), cyclovalyltyrosine] | – | insoluble | IC50 (xanthine oxidase (XO); [2]): 79.4 ± 16.1 µM
15 | O=C1N[C@@H](Cc2ccc(O)cc2)C(=O)N[C@H]1Cc1ccc(O)cc1 [Cyclo(Tyr-Tyr), cyclotyrosyltyrosine] | – | insoluble | IC50 (xanthine oxidase (XO); [2]): 29.5 ± 2.9 µM; action of inhibiting a xanthine oxidase (in words) (xanthine oxidase (XO)): high action of inhibiting a xanthine oxidase
16 | O=C1NC(Cc2ccccc2)C(=O)NC1CO (stereo not shown) [Cyclo(Ser-Phe), reference compound] | > 300 µM | – | –
17 | O=C1NC(Cc2ccccc2)C(=O)NC1Cc1ccccc1 (stereo not shown) [Cyclo(Phe-Phe), reference compound] | > 100 µM | – | –
18 | CC1NC(=O)C(Cc2ccc(O)cc2)NC1=O (stereo not shown) [Cyclo(Ala-Tyr), cycloalanyltyrosine] | – | insoluble | Inhibition Rate (%) at Concentration of 100 μM (xanthine oxidase (XO)): 8.3%
19 | CC(C)C1NC(=O)C(Cc2ccccc2)NC1=O (stereo not shown) [Cyclo(Val-Phe), reference compound] | 60.5 ± 2.4 µM | – | –

Row | Compound | IC50 (xanthine oxidase (XO); [1]) | Solubility in Water (Solubility in water) | other results
20 | O=C(O)CCC1NC(=O)C(Cc2ccccc2)NC1=O (stereo not shown) [Cyclo(Glu-Phe), reference compound] | > 100 µM | – | –
21 | CSCCC1NC(=O)C(Cc2ccc(O)cc2)NC1=O (stereo not shown) [Cyclo(Met-Tyr), cyclomethionyltyrosine] | – | 5000 µM (≈ 1470 µg/mL) | solubility in water (in words) (Solubility in water): high solubility in water; IC50 (xanthine oxidase (XO); [2]): 56.4 ± 2.9 µM
22 | CC(C)CC1NC(=O)C(Cc2ccccc2)NC1=O (stereo not shown) [Cyclo(Leu-Phe), reference compound] | > 100 µM | – | –
23 | C[C@@H](O)[C@@H]1NC(=O)[C@H](Cc2ccc(O)cc2)NC1=O [Cyclo(Thr-Tyr), cyclothreonyltyrosine] | – | 1000 µM (≈ 264 µg/mL) | solubility in water (in words) (Solubility in water): high solubility in water; Inhibition Rate (%) at Concentration of 100 μM (xanthine oxidase (XO)): 2.6%
24 | cycloleucyltyrosine [Cyclo(Leu-Tyr)] | – | insoluble | IC50 (xanthine oxidase (XO); [2]): 23.8 ± 5.3 µM; action of inhibiting a xanthine oxidase (in words) (xanthine oxidase (XO)): high action of inhibiting a xanthine oxidase
25 | O=C1NC(Cc2ccccc2)C(=O)NC1CS (stereo not shown) [Cyclo(Phe-Cys), reference compound] | 133 ± 25.2 µM | – | –
26 | O=C1NC(Cc2c[nH]c3ccccc23)C(=O)NC1Cc1ccccc1 (stereo not shown) [Cyclo(Trp-Phe), reference compound] | > 100 µM | – | –
27 | NCCCC[C@@H]1NC(=O)[C@H](Cc2ccc(O)cc2)NC1=O [Cyclo(Lys-Tyr), cyclolysyltyrosine] | – | 5000 µM (≈ 1460 µg/mL) | solubility in water (in words) (Solubility in water): high solubility in water; Inhibition Rate (%) at Concentration of 100 μM (xanthine oxidase (XO)): 25.7%
28 | O=C1NC(Cc2ccc(O)cc2)C(=O)NC1CO (stereo not shown) [Cyclo(Ser-Tyr), cycloseryltyrosine] | – | insoluble | IC50 (xanthine oxidase (XO); [2]): 189 ± 52.5 µM
29 | O=C1N[C@@H](Cc2ccc(O)cc2)C(=O)N[C@H]1Cc1ccccc1 [Cyclo(Phe-Tyr), cyclophenylalanyltyrosine] | 22.2 ± 0.8 µM | insoluble | IC50 (xanthine oxidase (XO); [2]): 22.2 ± 0.8 µM; action of inhibiting a xanthine oxidase (in words) (xanthine oxidase (XO)): high action of inhibiting a xanthine oxidase
30 | O=C(O)CC[C@@H]1NC(=O)[C@H](Cc2ccc(O)cc2)NC1=O [Cyclo(Glu-Tyr), cycloglutamyltyrosine] | – | 5000 µM (≈ 1460 µg/mL) | solubility in water (in words) (Solubility in water): high solubility in water; Inhibition Rate (%) at Concentration of 100 μM (xanthine oxidase (XO)): 0.4%
31 | CSCCC1NC(=O)C(Cc2ccccc2)NC1=O (stereo not shown) [Cyclo(Met-Phe), reference compound] | > 100 µM | – | –
32 | NC(=O)CCC1NC(=O)C(Cc2ccccc2)NC1=O (stereo not shown) [Cyclo(Gln-Phe), reference compound] | > 300 µM | – | –
33 | N=C(N)NCCCC1NC(=O)C(Cc2ccccc2)NC1=O (stereo not shown) [Cyclo(Arg-Phe), reference compound] | > 300 µM | – | –
34 | CC(O)C1NC(=O)C(Cc2ccccc2)NC1=O (stereo not shown) [Cyclo(Thr-Phe), reference compound] | > 300 µM | – | –
35 | CC1NC(=O)C(Cc2ccccc2)NC1=O (stereo not shown) [Cyclo(Ala-Phe), reference compound] | > 100 µM | – | –
36 | O=C1NC(Cc2cnc[nH]2)C(=O)NC1Cc1ccccc1 (stereo not shown) [Cyclo(His-Phe), reference compound] | > 100 µM | – | –
37 | O=C1N[C@@H](Cc2ccc(O)cc2)C(=O)N2CCC[C@@H]12 [Cyclo(Pro-Tyr), cycloprolyltyrosine] | – | 1000 µM (≈ 260 µg/mL) | solubility in water (in words) (Solubility in water): high solubility in water; Inhibition Rate (%) at Concentration of 100 μM (xanthine oxidase (XO)): 2.3%
